Reference: patent US7332476B2, “Pyridyl substituted ketolide antibiotics” (Novartis AG, priority 2003, dated 2008)

Assays:
Test in all cases: MIC, broth microdilution (NCCLS)
Type in all cases: cell-based
[1] = system: Streptococcus pyogenes Stpy_8668; conditions: Table 7, Strain ID E (Table 6): S. pyogenes Stpy_8668
Method: (§1) Strains. The bacterial isolates listed in Table 4 were cultivated from −70° C. frozen stocks by two consecutive overnight passages (P1, P2) at 35° C. on 5% blood agar (Remel, Lenexa, Kans.). Chocolate agar (Remel) is used for Haemophilus influenzae. H. influenzae and Streptococcus pneumoniae are incubated in 5-10% CO2
(§2) Drug Stock Preparation. To determine the amount of solvent to be used to give the desired final concentration, the formula “weight obtained in mg/final concentration in mg/ml” will be used. It will give the amount of solvent in ml needed to be added to give the desired concentration. For example, if 2.5 mg/ml is the desired concentration and the weight of compound is 13.7 mg, then the amount of solvent to be added is […]. Methanol is used as the solvent to dissolve the test compounds. Further dilution of stock is done in sterile, deionized water. Drug stocks are kept frozen at −70° C., protected from light.
(§3) Susceptibility Testing. MICs are determined by the broth microdilution method in accordance with the NCCLS guidelines. In brief, organism suspensions are adjusted to a 0.5 McFarland standard to yield a final inoculum between 3×10^5 and 7×10^5 CFU/ml. Drug dilutions and inocula are made in sterile, cation adjusted Mueller-Hinton Broth (CAMHB) (Remel) for all but S. pneumoniae [CAMHB with 2-5% lysed horse blood (Remel)] and H. influenzae [Haemophilus Test Medium (Remel)]. An inoculum volume of 100 μl is added to wells containing 100 μl of broth with 2-fold serial dilutions of drug. All inoculated microdilution trays are incubated in ambient air at 35° C. for 18-24 hours, except for S. pneumoniae, and H. influenzae (both at 5-10% CO2).
(§4) Following appropriate incubation, the MIC is determined and the MIC is defined as the lowest concentration of the drug that prevented visible growth.
(§5) Strains. The bacterial isolates listed in Table 8 were cultivated from −70° C. frozen stocks by two consecutive overnight passages (P1, P2) at 35° C. on 5% blood agar (Remel, Lenexa, Kans.). Chocolate agar (Remel) is used for Haemophilus influenzae. H. influenzae and Streptococcus pneumoniae are incubated in 5-10% CO2
(§6) Following appropriate incubation, the MIC is determined and the MIC is defined as the lowest concentration of the drug that prevented visible growth. […] Antibacterial activity of representative compounds of the invention were compared against telitromycin.

[2] = system: Streptococcus pneumoniae Stpn_297-749; conditions: Table 7, Strain ID G (Table 6): S. pneumoniae Stpn_297-749
Method: as §1, §2, §3, §4, §5, §6

[3] = system: Streptococcus pneumoniae Stpn_Mef S 3427; conditions: Table 7, Strain ID L (Table 6): S. pneumoniae Stpn_Mef S 3427
Method: as §1, §2, §3, §4, §5, §6

[4] = system: Streptococcus pneumoniae Stpn_49619; conditions: Table 7, Strain ID F (Table 6): S. pneumoniae Stpn_49619
Method: as §1, §2, §3, §4, §5, §6

[5] = system: Streptococcus pneumoniae Stpn_280-962; conditions: Table 7, Strain ID H (Table 6): S. pneumoniae Stpn_280-962
Method: as §1, §2, §3, §4, §5, §6

[6] = system: Streptococcus pneumoniae Stpn_Erm S 4297; conditions: Table 7, Strain ID J (Table 6): S. pneumoniae Stpn_Erm S 4297
Method: as §1, §2, §3, §4, §5, §6

Measured: MIC

CC[C@H]1OC(=O)[C@H](C)C(=O)[C@H](C)[C@@H](OC2O[C@H](C)C[C@H](N(C)C)[C@H]2O)[C@@](C)(OC)C[C@@H](C)C(=O)[C@H](C)[C@H]2N(CCCCn3cnc4cccnc43)C(=O)O[C@]12CC (stereo partly drawn) [Example 14, (3aS,4R,7R,9R,10R,11S,13R,15R,15aR)-3a,4-DIETHYL-1-[4-(3H-IMIDAZO[4,5-B]PYRIDIN-3-YL)BUTYL]-11-METHOXY-7,9,11,13,15-PENTAMETHYL-2,6,8,14-TETRAOXOTETRADECAHYDRO-2H-OXACYCLOTETRADECINO[4,3-D][1,3]OXAZOL-10-YL-3,4,6-TRIDEOXY-3-(DIMETHYLAMINO)-D-XYLO-HEXOPYRANOSIDE]
not listed: [6]
=0.05: all other assays above

CC[C@H]1OC(=O)[C@H](C)C(=O)[C@H](C)[C@@H](OC2O[C@H](C)C[C@H](N(C)C)[C@H]2O)[C@@](C)(OC)C[C@@H](C)C(=O)[C@H](C)[C@H]2N(CCCCc3ccc4ccccc4n3)C(=O)O[C@]12CC (stereo partly drawn) [Example 18, (3aS,4R,7R,9R,10R,11S,13R,15R,15aR)-3a,4-diethyl-11-methoxy-7,9,11,13,15-pentamethyl-2,6,8,14-tetraoxo-1-(4-quinolin-2-ylbutyl)tetradecahydro-2H-oxacyclotetradecino[4,3-d][1,3]oxazol-10-yl-3,4,6-trideoxy-3-(dimethylamino)-D-xylo-hexopyranoside]
=0.05: [2] | [3] | [4] | [5]

CC[C@H]1OC(=O)[C@@](C)(F)C(=O)[C@H](C)[C@@H](OC2O[C@H](C)C[C@H](N(C)C)[C@H]2O)[C@@](C)(OC)C[C@@H](C)C(=O)[C@H](C)[C@H]2N(CCCCn3cnc(-c4ccc(C)nc4)c3)C(=O)O[C@]12CC (stereo partly drawn) [Example 30, (3aS,4R,7S,9R,10R,11S,13R,15R,15aR)-3a,4-diethyl-7-fluoro-11-methoxy-7,9,11,13,15-pentamethyl-1-{4-[4-(6-methylpyridin-3-yl)-1H-imidazol-1-yl]butyl}-2,6,8,14-tetraoxotetradecahydro-2H-oxacyclotetradecino[4,3-d][1,3]oxazol-10-yl 3,4,6-trideoxy-3-(dimethylamino)-D-xylo-hexopyranoside]
=0.05: [1] | [2] | [4] | [5]

CC[C@H]1OC(=O)[C@@](C)(F)C(=O)[C@H](C)[C@@H](OC2O[C@H](C)C[C@H](N(C)C)[C@H]2O)[C@@](C)(OC)C[C@@H](C)C(=O)[C@H](C)[C@H]2N(CCCC(C)(C)n3cnc(-c4cccnc4)c3)C(=O)O[C@]12CC (stereo partly drawn) [Example 32, (3aS,4R,7S,9R,10R,11S,13R,15R,15aR)-3a,4-diethyl-7-fluoro-11-methoxy-7,9,11,13,15-pentamethyl-1-[4-methyl-4-(4-pyridin-3-yl-1H-imidazol-1-yl)pentyl]-2,6,8,14-tetraoxotetradecahydro-2H-oxacyclotetradecino[4,3-d][1,3]oxazol-10-yl-3,4,6-trideoxy-3-(dimethylamino)-D-xylo-hexopyranoside]
not listed: [3]
=0.05: all other assays above

CC[C@H]1OC(=O)[C@H](C)C(=O)[C@H](C)[C@@H](OC2O[C@H](C)C[C@H](N(C)C)[C@H]2O)[C@@](C)(OC)C[C@@H](C)C(=O)[C@H](C)[C@H]2N(CCCC(C)(C)n3cnc4ncccc43)C(=O)O[C@]12CC (stereo partly drawn) [Example 37, (3aS,4R,7R,9R,10R,11S,13R,15R,15aR)-3a,4-diethyl-1-[4-(1H-imidazo[4,5-b]pyridin-1-yl)-4-methylpentyl]-11-methoxy-7,9,11,13,15-pentamethyl-2,6,8,14-tetraoxotetradecahydro-2H-oxacyclotetradecino[4,3-d][1,3]oxazol-10-yl-3,4,6-trideoxy-3-(dimethylamino)-D-xylo-hexopyranoside]
=0.05: [1] | [2] | [4] | [5]

CC[C@H]1OC(=O)[C@H](C)C(=O)[C@H](C)[C@@H](OC2O[C@H](C)C[C@H](N(C)C)[C@H]2O)[C@@](C)(OC)C[C@@H](C)C(=O)[C@H](C)[C@H]2N(CCCC(C)(C)n3cnc4cccnc43)C(=O)O[C@]12CC (stereo partly drawn) [Example 38, (3aS,4R,7R,9R,10R,11S,13R,15R,15aR)-3a,4-diethyl-1-[4-(3H-imidazo[4,5-b]pyridin-3-yl)-4-methylpentyl]-11-methoxy-7,9,11,13,15-pentamethyl-2,6,8,14-tetraoxotetradecahydro-2H-oxacyclotetradecino[4,3-d][1,3]oxazol-10-yl-3,4,6-trideoxy-3-(dimethylamino)-D-xylo-hexopyranoside]
=0.05: [1] | [2] | [4] | [5]

C=C[C@]12OC(=O)N(CCCCn3cnc(-c4cccnc4)c3)[C@@H]1[C@@H](C)C(=O)[C@H](C)C[C@](C)(OC)[C@H](OC1O[C@H](C)C[C@H](N(C)C)[C@H]1O)[C@@H](C)C(=O)[C@](C)(F)C(=O)O[C@@H]2CC (stereo partly drawn) [Example 49, (3aS,4R,7S,9R,10R,11S,13R,15R,15aR)-4-ethyl-7-fluoro-11-methoxy-7,9,11,13,15-pentamethyl-2,6,8,14-tetraoxo-1-[4-(4-pyridin-3-yl-1H-imidazol-1-yl)butyl]-3a-vinyltetradecahydro-1H-oxacyclotetradecino[4,3-d][1,3]oxazol-10-yl-3,4,6-trideoxy-3-(dimethylamino)-D-xylo-hexopyranoside]
=0.05: all assays above

C=C[C@]12OC(=O)N(CCCC(C)(C)n3cnc(-c4cccnc4)c3)[C@@H]1[C@@H](C)C(=O)[C@H](C)C[C@](C)(OC)[C@H](OC1O[C@H](C)C[C@H](N(C)C)[C@H]1O)[C@@H](C)C(=O)[C@@H](C)C(=O)O[C@@H]2CC (stereo partly drawn) [Example 50, (3aS,4R,7R,9R,10R,11S,13R,15R,15aR)-4-ethyl-11-methoxy-7,9,11,13,15-pentamethyl-1-[4-methyl-4-(4-pyridin-3-yl-1H-imidazol-1-yl)pentyl]-2,6,8,14-tetraoxo-3a-vinyltetradecahydro-1H-oxacyclotetradecino[4,3-d][1,3]oxazol-10-yl-3,4,6-trideoxy-3-(dimethylamino)-D-xylo-hexopyranoside]
not listed: [3]
=0.05: all other assays above
